Data set [1] in a line: Non-enzymatic degradation of substrate ester in the presence of BSA. The format is physicochemical. The source says: Following these experiments, another factor was then considered. As the interfacial activity of any compound will be affected by surfactants, for instance a protein, one could expect the presence of the enzyme to exert effects on the non-enzymatic nonspecific degradation of the substrate compound. To test this proposition, control experiments were run in which bovine serum albumin (BSA) was substituted for the hydrolytic enzyme in the reaction mixture. The chlorinated hydrocarbons and p-xylene were omitted for convenience.
Racemic 3-(4-methoxyphenyl) glycidic acid methyl ester (10.0 mmols, 2.08 g) was dissolved in 50 mL of the chosen organic solvent, and added to 50 mL of 200 mM sodium phosphate buffer at the chosen pH (7.0, 8.0, or 8.5) in a 250 mL shaker flask. Bovine serum albumin (BSA, 100 mg) was then added. The flask was closed, and agitated for 18 hours at ambient temperature (20-25° C.). The reaction mixture was then poured into a separatory funnel, the organic layer removed (except in the case of 1,4-dioxane, which is miscible in water), and the aqueous layer washed with diethyl ether. The organic layers were then combined, backwashed with water, and dried over anhydrous magnesium sulfate. The organic solvent was then removed under reduced pressure, and the recovered ester weighed to determine the extent of non-enzymatic degradation.

The nature of data set [2]: Solubility of racemic ester in toluene. The data set is classed as physicochemical. The following applies: 4° C. The procedure:
The amount of toluene required to dissolve the racemic ester at 4° C. was determined by dividing the weight of racemic ester by the solubility of the ester in toluene at this temperature (˜0.13 g of racemic ester/g of toluene). The weight of toluene required was then 19.07/0.13=146.7 g. The two organic fractions were combined and toluene was then evaporated until the total weight of toluene plus ester was equal to 146.7+109.5 or 256.2 g. Afterward, the organic concentrate containing ester and toluene was cooled to 4° C. for 18 hours in order to crystallize the (2R,3S) enantiomer of the ester. The precipitated crystals were then filtered and analyzed, while the mother liquor was saved for recycling. The amount of solids collected was 91.9 g. […] The yield of resolved ester was 38.6%.

The nature of data set [3]: Stability of GLOP / racemic ester in solvents on standing. The data set is classed as physicochemical. The source says: At six days, only about half of the original amount of ester remained.
A short description of data set [4]: Degradation rate of racemic ester in membrane reactor system, toluene vs MIBK. The data set is classed as physicochemical. The note with it: organic solution in contact with 50 mM phosphate buffer pH 8.0, membrane reactor. Here is the method:
In a separate experiment, the degradation rate of racemic ester was measured in a membrane reactor system using two kinds of solvent, toluene and methyl isobutyl ketone (MIBK), at different concentrations of glycidyl ester. These organic solutions were brought into contact separately with a 50 mM phosphate buffer (pH 8.0) to simulate enzymatic resolution conditions. The amount of ester present in the organic solutions was monitored over several hours.

The nature of data set [5]: Stability of glycidic ester in aqueous phosphate buffer with and without toluene. The data set is classed as physicochemical. The source says: In the present invention, enzyme catalysts are present either dissolved or dispersed in an aqueous phase. Although the glycidic esters described herein are generally quite insoluble in water, the epoxide ring is susceptible to opening through nucleophilic attack by species such as hydroxide ions and water molecules, even in the absence of enzymes. […] Therefore, the use of an organic phase as a method for protecting the substrate from undesired transformations by water, hydroxide ions, or water-soluble buffer systems is a significant aspect of this invention. These experimental observations indicate the need for a biphasic system, and preferably a multiphase/extractive membrane reactor as described below, for efficiently conducting the enzyme-mediated resolution process disclosed herein.

Data set [6] can be described thus: Loss of compound A on extraction with 10% bisulfite solution. The data set is classed as physicochemical. The note with it: diethyl ether solution extracted once with 10% bisulfite solution. The procedure: 2.0 g of pure, racemic compound A were dissolved in 200 mls of diethyl ether. This organic solution was then extracted once with 250 mls of a 10% bisulfite solution, washed with 250 mls water, dried over magnesium sulphate, and evaporated to leave 1.8 g of racemic compound A, indicating a 10% loss of material. Recovery of material in the absence of the bisulfite wash was nearly quantitative.

Another data set relates to Lipase MAP. Nature of the data set: Degree of inhibition by reaction products: initial rate of hydrolysis of compound A by Lipase MAP. The data set is classed as biochemical. The following applies: pH 8.0, 400 mM compound A in toluene, in the presence of 1 mmole (50 mM) of the compound, A alone = 1.0. Here is the method: (§1) A reaction mixture composed of 12 mls of 50 mM sodium phosphate buffer at pH 8.0 and 8 mls of a 400 mM toluene solution of pure, racemic compound A, was rapidly stirred and the reaction rate monitored by a device known as a “pH stat”. A given amount of a given commercial enzyme preparation was then added to the reaction mixture, and the initial rate of hydrolysis calculated. The reaction was repeated in the presence of 1 mmole (50 mM) of compound C, in the presence of 1 mmole (50 mM) of compound D, and in the presence of 1 mmole (50 mM) of compound E. The results are tabulated in Table 11.

A further data set deals with Lipase OF. Put plainly: Degree of inhibition by reaction products: initial rate of hydrolysis of compound A by Lipase OF. The format is biochemical, Candida cylindracea. The following applies: pH 8.0, 400 mM compound A in toluene, in the presence of 1 mmole (50 mM) of the compound, A alone = 1.0. Here is the method: as §1
Another data set deals with T1, Lipase P (Burkholderia cepacia, UniProt P22088).
T1 construct: purchased Amano
Nature of the data set: Degree of inhibition by reaction products: initial rate of hydrolysis of compound A by Lipase P. The format is biochemical. The following applies: pH 8.0, 400 mM compound A in toluene, in the presence of 1 mmole (50 mM) of the compound, A alone = 1.0. Here is the method:
as §1

In the next data set the target is T2, Palatase M (Rhizomucor miehei, UniProt P19515).
T2 construct: purchased Novo
T2 sequence (P19515 95-363): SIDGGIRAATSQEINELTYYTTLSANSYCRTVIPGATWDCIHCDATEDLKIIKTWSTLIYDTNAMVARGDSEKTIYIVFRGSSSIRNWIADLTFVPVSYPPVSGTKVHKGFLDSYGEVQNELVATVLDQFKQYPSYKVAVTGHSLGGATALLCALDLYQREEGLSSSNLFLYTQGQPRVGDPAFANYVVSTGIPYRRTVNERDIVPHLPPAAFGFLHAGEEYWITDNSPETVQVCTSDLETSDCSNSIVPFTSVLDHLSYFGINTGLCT
Put plainly: Degree of inhibition by reaction products: initial rate of hydrolysis of compound A by Palatase M. The data set is classed as biochemical. The note with it: pH 8.0, 400 mM compound A in toluene, in the presence of 1 mmole (50 mM) of the compound, A alone = 1.0. The procedure:
as §1

For data set [7] the following is noted: aqueous solution; cited from earlier work.

We go through five molecules from patent US6521445B1, “Process for preparing optically active glycidate esters” (Sepracor, Inc., priority 1988, dated 2003).

T1 sequence (P22088 45-364): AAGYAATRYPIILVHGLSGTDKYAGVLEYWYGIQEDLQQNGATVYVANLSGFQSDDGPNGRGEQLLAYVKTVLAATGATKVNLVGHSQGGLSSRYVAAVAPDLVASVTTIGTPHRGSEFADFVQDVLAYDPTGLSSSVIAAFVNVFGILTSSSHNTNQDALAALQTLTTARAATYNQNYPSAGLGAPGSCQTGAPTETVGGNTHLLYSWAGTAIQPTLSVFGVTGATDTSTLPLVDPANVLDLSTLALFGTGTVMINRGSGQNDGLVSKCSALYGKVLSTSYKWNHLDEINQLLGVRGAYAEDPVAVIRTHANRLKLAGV

`COC(=O)[C@@H]1O[C@H]1c1ccc(OC)cc1` (relative stereo) [Compound A, trans-3-(4-methoxyphenyl)glycidic acid methyl ester]: the Percent degradation in data set [1] (1,4-dioxane, pH 7.0, 18 hours ambient) is listed as 40.9%; in data set [1] (1,4-dioxane, pH 8.0, 18 hours ambient), 21.6%; in data set [1] (MIBK, pH 8.0, 18 hours ambient), 15.0%; in [1] (MIBK, pH 8.5, 18 hours ambient) it was 12.0%; in data set [1] (MetBuO, pH 7.0, 18 hours ambient), 41.8%; in data set [1] (MetBuO, pH 8.0, 18 hours ambient), 22.1%. Besides, the Percent degradation in data set [1] (benzene, pH 7.0, 18 hours ambient) stood at 38.5%; in [1] (benzene, pH 8.0, 18 hours ambient) it was 14.4%; in data set [1] (cyclohexane, pH 7.0, 18 hours ambient), 71.6%; in [1] (cyclohexane, pH 8.0, 18 hours ambient), 38.5%; in data set [1] (toluene, pH 8.0, 18 hours ambient), 14.3%; in data set [1] (toluene, pH 8.5, 18 hours ambient), 19.1%. Moreover, in data set [2], the “Solubility of the ester in toluene” value is listed as ~0.13 g of racemic ester/g of toluene. Besides, in [3] (saturated methanol solution, room temperature, six days), the “Original amount of ester remaining” value is “about half”. Further, in [3] (saturated methanol solution, room temperature, two days, HPLC), the “Original amount of ester degraded” value is “about 9%”. The “Degradation rate constant in MIBK relative to toluene” value in data set [4] was “about 3 times”. In addition, the “Stability in aqueous buffer” value in data set [5] (aqueous sodium phosphate buffer pH 7.0, 18 hours, ambient temperature, no organic solvent or enzyme) is recorded as “loss of glycidic ester”. Besides, in [5] (toluene in 1-to-1 phase ratio with pH 7.0 buffer, 18 hours), the Glycidic ester recovered is on record as 100%. For the same molecule, in data set [6], the Loss of material was 10%.

`COc1ccc(CC=O)cc1` [C, 4-methoxyphenylacetaldehyde]: the “Relative Initial Rates” value stood at 0.73 in the data set with Lipase MAP, 0.63 with Lipase OF, 1.00 at Lipase P and 0.38 at Palatase M.

Take `COc1ccc(CC(=O)O)cc1` [D, 4-methoxyphenylacetic acid]: the “Relative Initial Rates” value in the data set with Lipase MAP is 0.99; in the data set on Lipase OF, 1.18; at Lipase P, 1.07; on Palatase M, more than 1.0.

In the case of `O=S(O)O` [bisulfite anion], the pKa result in data set [7] was “approximately 7”.

Regarding `COC(=O)[C@@H]1O[C@H]1c1ccc(OC)cc1` [resolved GLOP, (2R,3S)-3-(4-methoxyphenyl)glycidic acid methyl ester], the “Stability in solution” value in data set [3] (aromatic solvent, ambient temperature, over days) is reported as “stable against the loss of material or optical activity”.
